Data as given in PubChem BioAssay (NCI).
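Cultured in 96-well plates, cells were exposed to test compound for 48 hours across five concentrations. TGI is the concentration that stops growth completely.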

These molecules were tested on UO-31 renal (assay: NCI-60 cell line screen, 48 h).

SMILES | TGI
O=C1NC(=O)C(CC2CCCCCCCCCCC2=O)C(=O)N1 (configuration not stated) | > 100 µM
Cc1cc(NCc2ccccc2)c2ccccc2[n+]1CCCCCCCCCC[n+]1c(C)cc(NCc2ccccc2)c2ccccc21 | 7.15 µM
Nc1ccc(S(=O)(=O)Nc2nccs2)cc1 | > 100 µM
CCOc1ccc(/C=C2/C(=O)N=C(NC(C)=O)N2C)cc1 | > 100 µM

These molecules were tested on T-47D breast (assay: NCI-60 cell line screen, 48 h).

SMILES | TGI
Cc1nc2sc3ccccc3n2c(=O)c1N=Nc1ccc(Cl)cc1 | > 100 µM
Cc1ccc2c(c1)C(=O)C1(C2)Cc2cccc(C)c2C1=O (configuration not stated) | > 100 µM
Cc1cc(NCc2ccccc2)c2ccccc2[n+]1CCCCCCCCCC[n+]1c(C)cc(NCc2ccccc2)c2ccccc21 | 1.41 µM
Nc1ccc(S(=O)(=O)Nc2nccs2)cc1 | > 100 µM
CCOc1ccc(/C=C2/C(=O)N=C(NC(C)=O)N2C)cc1 | > 100 µM

What follows are molecules tested on NCI-H226 lung (assay: NCI-60 cell line screen, 48 h).

SMILES | TGI
Cc1nc2sc3ccccc3n2c(=O)c1N=Nc1ccc(Cl)cc1 | > 100 µM
O=C1O[C@H](c2ccc3c(c2)OCO3)[C@H]2CO[C@@H](c3ccc4c(c3)OCO4)[C@@H]12 | > 100 µM
Cc1ccc2c(c1)C(=O)C1(C2)Cc2cccc(C)c2C1=O (configuration not stated) | > 100 µM
O=C1NC(=O)C(CC2CCCCCCCCCCC2=O)C(=O)N1 (configuration not stated) | > 100 µM
Nc1ccc(S(=O)(=O)Nc2nccs2)cc1 | > 100 µM
CCOc1ccc(/C=C2/C(=O)N=C(NC(C)=O)N2C)cc1 | > 100 µM

Each molecule was assayed on OVCAR-3 ovarian (assay: NCI-60 cell line screen, 48 h).

SMILES | TGI
Cc1nc2sc3ccccc3n2c(=O)c1N=Nc1ccc(Cl)cc1 | > 100 µM
Cc1ccc2c(c1)C(=O)C1(C2)Cc2cccc(C)c2C1=O (configuration not stated) | > 100 µM
O=C1NC(=O)C(CC2CCCCCCCCCCC2=O)C(=O)N1 (configuration not stated) | > 100 µM
Nc1ccc(S(=O)(=O)Nc2nccs2)cc1 | > 100 µM
CCOc1ccc(/C=C2/C(=O)N=C(NC(C)=O)N2C)cc1 | > 100 µM

What follows are molecules tested on 786-0 renal (assay: NCI-60 cell line screen, 48 h).

SMILES | TGI
Cc1nc2sc3ccccc3n2c(=O)c1N=Nc1ccc(Cl)cc1 | > 100 µM
O=C1O[C@H](c2ccc3c(c2)OCO3)[C@H]2CO[C@@H](c3ccc4c(c3)OCO4)[C@@H]12 | > 100 µM
Cc1ccc2c(c1)C(=O)C1(C2)Cc2cccc(C)c2C1=O (configuration not stated) | > 100 µM
O=C1NC(=O)C(CC2CCCCCCCCCCC2=O)C(=O)N1 (configuration not stated) | > 100 µM
Cc1cc(NCc2ccccc2)c2ccccc2[n+]1CCCCCCCCCC[n+]1c(C)cc(NCc2ccccc2)c2ccccc21 | 2.44 µM
Nc1ccc(S(=O)(=O)Nc2nccs2)cc1 | > 100 µM
CCOc1ccc(/C=C2/C(=O)N=C(NC(C)=O)N2C)cc1 | > 100 µM

The molecules below were run on OVCAR-4 ovarian (assay: NCI-60 cell line screen, 48 h).

SMILES | TGI
Cc1nc2sc3ccccc3n2c(=O)c1N=Nc1ccc(Cl)cc1 | > 100 µM
O=C1O[C@H](c2ccc3c(c2)OCO3)[C@H]2CO[C@@H](c3ccc4c(c3)OCO4)[C@@H]12 | > 100 µM
Cc1ccc2c(c1)C(=O)C1(C2)Cc2cccc(C)c2C1=O (configuration not stated) | > 100 µM
O=C1NC(=O)C(CC2CCCCCCCCCCC2=O)C(=O)N1 (configuration not stated) | > 100 µM
Cc1cc(NCc2ccccc2)c2ccccc2[n+]1CCCCCCCCCC[n+]1c(C)cc(NCc2ccccc2)c2ccccc21 | > 100 µM
Nc1ccc(S(=O)(=O)Nc2nccs2)cc1 | > 100 µM
CCOc1ccc(/C=C2/C(=O)N=C(NC(C)=O)N2C)cc1 | > 100 µM

What follows are molecules tested on UACC-62 melanoma (assay: NCI-60 cell line screen, 48 h).

SMILES | TGI
Cc1nc2sc3ccccc3n2c(=O)c1N=Nc1ccc(Cl)cc1 | > 100 µM
O=C1O[C@H](c2ccc3c(c2)OCO3)[C@H]2CO[C@@H](c3ccc4c(c3)OCO4)[C@@H]12 | > 100 µM
Cc1ccc2c(c1)C(=O)C1(C2)Cc2cccc(C)c2C1=O (configuration not stated) | > 100 µM
O=C1NC(=O)C(CC2CCCCCCCCCCC2=O)C(=O)N1 (configuration not stated) | > 100 µM
Cc1cc(NCc2ccccc2)c2ccccc2[n+]1CCCCCCCCCC[n+]1c(C)cc(NCc2ccccc2)c2ccccc21 | 0.567 µM
Nc1ccc(S(=O)(=O)Nc2nccs2)cc1 | > 100 µM
CCOc1ccc(/C=C2/C(=O)N=C(NC(C)=O)N2C)cc1 | > 100 µM

These molecules were tested on MCF7 breast (assay: NCI-60 cell line screen, 48 h).

SMILES | TGI
Cc1nc2sc3ccccc3n2c(=O)c1N=Nc1ccc(Cl)cc1 | > 100 µM
O=C1O[C@H](c2ccc3c(c2)OCO3)[C@H]2CO[C@@H](c3ccc4c(c3)OCO4)[C@@H]12 | > 100 µM
Cc1ccc2c(c1)C(=O)C1(C2)Cc2cccc(C)c2C1=O (configuration not stated) | > 100 µM
O=C1NC(=O)C(CC2CCCCCCCCCCC2=O)C(=O)N1 (configuration not stated) | > 100 µM
Cc1cc(NCc2ccccc2)c2ccccc2[n+]1CCCCCCCCCC[n+]1c(C)cc(NCc2ccccc2)c2ccccc21 | 1.91 µM
Nc1ccc(S(=O)(=O)Nc2nccs2)cc1 | > 100 µM
